# Measurements as given in patent publication US20070003481A1, “Method and composition to individualize Levodopa/Carbidopa therapy using a breath test” (priority 2005, published 2007).
# Tests used:
# [1] = biological target: T1, dopamine decarboxylase (DDC) (Homo sapiens, UniProt P20711); assay: 13CO2 breath test after 13C-labeled LD, with CD pretreatment or simultaneous CD; type: in vivo
# T1 construct: from tissue; host or cells: peripheral tissues of living human subjects (liver, kidney, gastrointestinal tract, capillary endothelium)
# T1 sequence (P20711 1-480): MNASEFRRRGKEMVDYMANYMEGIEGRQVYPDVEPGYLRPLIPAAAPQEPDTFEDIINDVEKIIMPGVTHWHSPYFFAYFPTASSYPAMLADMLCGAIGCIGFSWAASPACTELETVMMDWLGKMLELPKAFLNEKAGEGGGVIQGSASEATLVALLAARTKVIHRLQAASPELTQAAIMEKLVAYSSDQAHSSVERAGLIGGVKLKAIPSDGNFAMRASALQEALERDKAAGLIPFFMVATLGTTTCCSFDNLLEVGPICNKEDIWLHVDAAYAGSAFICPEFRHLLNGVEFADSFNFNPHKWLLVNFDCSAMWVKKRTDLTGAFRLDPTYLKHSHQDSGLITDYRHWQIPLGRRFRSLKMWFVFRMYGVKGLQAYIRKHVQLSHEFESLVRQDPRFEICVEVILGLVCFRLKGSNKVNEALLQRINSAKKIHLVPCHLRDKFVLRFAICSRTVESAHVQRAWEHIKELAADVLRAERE
# Procedure: ^13CO2 and ^12CO2 in exhaled breath samples is measured by IR spectrometry using the UBiT-IR300 (Meretek Diagnostics, Lafayette, CO; ^13CO2 urea breath analyzer instruction manual. Lafayette, CO: Meretek Diagnostics; 2002; A1-A2)^12 The amount of ^13CO2 present in breath samples is expressed as delta over baseline (DOB) that represents a change in the ^13CO2/^12CO2 ratio of breath samples collected before and after ^13C-labeled DDC enzyme substrate ingestion, e.g., ^13C-labeled LD. [formula]
# The amount of ^13C-labeled DDC substrate absorbed and released into the breath as ^13CO2 is determined for each time point using the equation described by Amarri (Amarri et al., Clin Nutr. 14:149-54 (1995)).
# The PDR is calculated using the formula: [formula] where ^13δ=[RS/RPDB)−1]×10^3 Rs=^13C:^12C in the sample RPDB=^13C:^12C in PDB (international standard PeeDeeBelemnite)=0.0112372) P is the atom % excess n is the number of labeled carbon positions δt, δ+1, δ0 are enrichments at times t, t+1 and predose respectively C is the CO2 production rate (C=300 [mmol/h]*BSA BSA=w^0.5378*h^0.3963*0.024265 (Body Surface Area) w: Weight (kg) h: Height (cm) Cmax is the highest value of DOB from the breath curve following ^13C-labeled DDC substrate. In one embodiment of the method, the ^13C-labeled DDC substrate is ^13C-labeled LD.
# The present studies employed the ^13CO2 breath test method of the present invention to determine the optimal dose of CD required to optimally suppress peripheral metabolism of ^13C-labeled LD in individual subjects (i.e., Vlt 1 and Vlt 2). Briefly, a pre-breath test sample was collected in normal human subjects after overnight fasting (12 h) in a 1.3 L aluminum bag (Otsuka Pharmaceutical Co., Ltd., Tokyo, Japan). Briefly, normal human subjects ingested varying dosages (e.g., 25 mg-200 mg CD) 1 h prior to administration of 100 mg ^13C-labeled LD on three successive days. Breath samples were collected at specified intervals following administration of ^13C-labeled LD to determine peripheral metabolic decarboxylation of the drug. That is, breath samples were collected at 5 minutes intervals for 40 minutes, at 10 minutes intervals to 90 minutes and 120 minutes. Metabolism of ^13C-labeled LD in the absence of CD administration served as control. The results of these studies are summarized FIGS. 5-8. There is a dose response to the inhibition of peripheral DDC enzyme activity by the inhibitor CD.
# The present studies examined the effect of CD preadministration on peripheral LD metabolism in human subjects. Briefly, normal human subjects ingested varying dosages (e.g., 25 mg-200 mg CD) either simultaneously, or up to 2 h prior to administration of ^13C-labeled LD. Breath samples were collected at specified intervals following administration of ^13C-labeled LD to determine peripheral metabolic decarboxylation of the ^13C-labeled LD. Metabolism of ^13C-labeled LD in the absence of CD administration served as control. The results of these studies are summarized below in Table 1 as well as FIGS. 9-14.
# In Table 1, figures in parenthesis are percent inhibition of DDC by CD. The delta over baseline of ^13CO2 is designated as DOB. The percentage of LD dose recovered as ^13CO2 is designated as PDR. The peak breath concentration of ^13CO2 is designated as Cmax.
# Breath samples are collected at 5 min time points up to 40 min and at 10 min intervals to 90 min and at 120 min after ingestion of ^13C-labeled LD. The breath samples are collected by having the subject momentarily holding their breath for 3 seconds prior to exhaling into a sample collection bag. The breath samples are analyzed on a UBiT IR-300 spectrophotometer (Meretek, Denver, Colo.) to determine the ^13CO2/^12CO2 ratio in expired breath, or sent to a reference lab. Optionally, varying doses (10-400 mg) of CD are orally administered to the subject (10 min-6 h) prior to administration of the ^13C-labeleld LD.
# [2] = 50 mg oral CD; serum CD time course; good/rapid (N=4) and poor/slow (N=5) absorbers; cited from earlier work
# peripheral DDC = biological target: T2, peripheral DDC (Homo sapiens, UniProt P20711); conditions: CD doses used in current clinical practice; cited from earlier work
# T2 construct: host or cells: human subjects in vivo (cited study)
# T2 sequence (P20711 1-480): T1 sequence (P20711 1-480)
# [3] = subject Vlt 1, CD 25 mg 1 h prior to LD
# [4] = subject Vlt 1, CD 25 mg simultaneous with LD
# [5] = subject Vlt 1, CD 50 mg 1 h prior to LD
# [6] = subject Vlt 1, CD 50 mg simultaneous with LD
# [7] = subject Vlt 1, CD 100 mg 1 h prior to LD
# [8] = subject Vlt 1, CD 100 mg simultaneous with LD
# [9] = subject Vlt 2, CD 50 mg 1 h prior to LD
# [10] = subject Vlt 2, CD 50 mg simultaneous with LD
# [11] = subject Vlt 2, CD 100 mg 1 h prior to LD
# [12] = subject Vlt 2, CD 100 mg simultaneous with LD
# [13] = subject Vlt 2, CD 200 mg 1 h prior to LD
# [14] = subject Vlt 2, CD 200 mg simultaneous with LD
smiles,measurement,setting,value
"C[C@@](Cc1ccc(O)c(O)c1)(NN)C(=O)O [CD, (−)-L-a-hydrazino-a-methyl-b-(3,4-dihydroxybenzene) propanoic acid monohydrate]","suppression of peripheral decarboxylation, simultaneous ingestion of CD/LD","[1]; 25 mg or 50 mg dose of CD and 100 mg of LD, simultaneous",did not completely suppress
same,"suppression of DDC, CD administered 1 h prior to LD dose",[1]; Vlt 1 and Vlt 2,maximal suppression
same,"inhibition of peripheral DDC enzyme activity, dependence on CD dose","[1]; Vlt 1 and Vlt 2, 25 mg-200 mg CD 1 h prior to 100 mg 13C-labeled LD",dose response
same,"level of peripheral metabolism of 13C-labeled LD, CD 1 h prior versus 2 h prior to LD",[1]; human subject,no significant difference
same,"inhibition of peripheral metabolism of 13C-labeled LD, CD prior (1 h or 2 h) compared to simultaneous",[1]; normal human subjects,greater
same,peripheral metabolism of 13C-labeled LD versus control level,"[1]; normal human subjects, all concentrations of CD tested",significantly inhibited
same,DOB20: DOB value at 20 minutes after administration of 13C-labeled LD,[1]; [3],25.8
same,PDR40: PDR value at 40 minutes after administration of 13C-labeled LD,[1]; [3],12.7%
same,percent inhibition of DDC by CD (Cmax),[1]; [3],54%
same,percent inhibition of DDC by CD (DOB20),[1]; [3],43%
same,percent inhibition of DDC by CD (PDR40),[1]; [3],57%
same,DOB20: DOB value at 20 minutes after administration of 13C-labeled LD,[1]; [4],35.6
same,PDR40: PDR value at 40 minutes after administration of 13C-labeled LD,[1]; [4],18.7%
same,percent inhibition of DDC by CD (Cmax),[1]; [4],20%
same,percent inhibition of DDC by CD (DOB20),[1]; [4],22%
same,percent inhibition of DDC by CD (PDR40),[1]; [4],37%
same,DOB20: DOB value at 20 minutes after administration of 13C-labeled LD,[1]; [5],6.8
same,PDR40: PDR value at 40 minutes after administration of 13C-labeled LD,[1]; [5],3.6%
same,percent inhibition of DDC by CD (Cmax),[1]; [5],88%
same,percent inhibition of DDC by CD (DOB20),[1]; [5],85%
same,percent inhibition of DDC by CD (PDR40),[1]; [5],88%
same,DOB20: DOB value at 20 minutes after administration of 13C-labeled LD,[1]; [6],25.5
same,PDR40: PDR value at 40 minutes after administration of 13C-labeled LD,[1]; [6],11.7%
same,percent inhibition of DDC by CD (Cmax),[1]; [6],57%
same,percent inhibition of DDC by CD (PDR40),[1]; [6],61%
same,DOB20: DOB value at 20 minutes after administration of 13C-labeled LD,[1]; [7],10.6
same,PDR40: PDR value at 40 minutes after administration of 13C-labeled LD,[1]; [7],5.3%
same,percent inhibition of DDC by CD (Cmax),[1]; [7],82%
same,percent inhibition of DDC by CD (DOB20),[1]; [7],77%
same,percent inhibition of DDC by CD (PDR40),[1]; [7],82%
same,DOB20: DOB value at 20 minutes after administration of 13C-labeled LD,[1]; [8],16.5
same,PDR40: PDR value at 40 minutes after administration of 13C-labeled LD,[1]; [8],9.1%
same,percent inhibition of DDC by CD (Cmax),[1]; [8],70%
same,percent inhibition of DDC by CD (DOB20),[1]; [8],64%
same,percent inhibition of DDC by CD (PDR40),[1]; [8],69%
same,DOB20: DOB value at 20 minutes after administration of 13C-labeled LD,[1]; [9],12.6
same,PDR40: PDR value at 40 minutes after administration of 13C-labeled LD,[1]; [9],8.3%
same,percent inhibition of DDC by CD (Cmax),[1]; [9],48%
same,percent inhibition of DDC by CD (DOB20),[1]; [9],66%
same,percent inhibition of DDC by CD (PDR40),[1]; [9],56%
same,DOB20: DOB value at 20 minutes after administration of 13C-labeled LD,[1]; [10],15.4
same,PDR40: PDR value at 40 minutes after administration of 13C-labeled LD,[1]; [10],11.0%
same,percent inhibition of DDC by CD (Cmax),[1]; [10],32%
same,percent inhibition of DDC by CD (DOB20),[1]; [10],58%
same,percent inhibition of DDC by CD (PDR40),[1]; [10],41%
same,DOB20: DOB value at 20 minutes after administration of 13C-labeled LD,[1]; [11],13.5
same,PDR40: PDR value at 40 minutes after administration of 13C-labeled LD,[1]; [11],7.8%
same,percent inhibition of DDC by CD (Cmax),[1]; [11],63%
same,percent inhibition of DDC by CD (DOB20),[1]; [11],63%
same,percent inhibition of DDC by CD (PDR40),[1]; [11],59%
same,DOB20: DOB value at 20 minutes after administration of 13C-labeled LD,[1]; [12],26.7
same,PDR40: PDR value at 40 minutes after administration of 13C-labeled LD,[1]; [12],14.1%
same,percent inhibition of DDC by CD (Cmax),[1]; [12],27%
same,percent inhibition of DDC by CD (DOB20),[1]; [12],27%
same,percent inhibition of DDC by CD (PDR40),[1]; [12],25%
same,DOB20: DOB value at 20 minutes after administration of 13C-labeled LD,[1]; [13],8.8
same,PDR40: PDR value at 40 minutes after administration of 13C-labeled LD,[1]; [13],5.7%
same,percent inhibition of DDC by CD (Cmax),[1]; [13],75%
same,percent inhibition of DDC by CD (DOB20),[1]; [13],76%
same,percent inhibition of DDC by CD (PDR40),[1]; [13],70%
same,DOB20: DOB value at 20 minutes after administration of 13C-labeled LD,[1]; [14],20.5
same,PDR40: PDR value at 40 minutes after administration of 13C-labeled LD,[1]; [14],12.0%
same,percent inhibition of DDC by CD (Cmax),[1]; [14],44%
same,percent inhibition of DDC by CD (PDR40),[1]; [14],36%
same,absorption of CD among human subjects,[2],variable
same,saturation of peripheral DDC activity,peripheral DDC,not saturated
